Test results reported in patent US8802711B2, “TRPV1 antagonists” (AbbVie Inc., priority 2011, dated 2014).

Columns and labels:
[1] = molecular target: T1, human TRPV1 receptor (hTRPV1) (Homo sapiens (Human), UniProt Q8NER1); assay: Capsaicin activation assay (FLIPR intracellular Ca2+); assay type: cell-based; settings: Table 1; inhibition of capsaicin-induced intracellular Ca2+ increase, HEK293 cells expressing human TRPV1; read-out: hTRPV1 cap IC50
Summary of the method: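 Antagonism measured as [Ca2+]i fluorescence on FLIPR Tetra: compounds given 3 min ahead of capsaicin, added as 200 nM (4×), to dye-loaded hTRPV1-HEK293 cells. Response taken as baseline-subtracted peak, normalized to the 50 nM capsaicin control; 12-point one-third-log titrations.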

[2] = molecular target: T1, human TRPV1 receptor (hTRPV1); assay: Acid activation assay (pH 5.0, FLIPR intracellular Ca2+); assay type: cell-based; settings: Table 1, 37.5 μM antagonist, percentage of the maximal pH 5.0-induced response remaining; for remaining activity at 37.5 µM: read-out: hTRPV1 H+ (max % remain)
Summary of the method: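 Antagonism of acid-evoked Ca2+ influx measured by FLIPR Calcium-4 fluorescence after a pH 5.0 DPBS/MES stimulus, with compounds preincubated 3 min over 12 half-log concentrations. Cells: stable hTRPV1-expressing 1321N1 line, dye-loaded 90–120 min in the dark at 25 °C.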

T1 sequence (Q8NER1 whole entry): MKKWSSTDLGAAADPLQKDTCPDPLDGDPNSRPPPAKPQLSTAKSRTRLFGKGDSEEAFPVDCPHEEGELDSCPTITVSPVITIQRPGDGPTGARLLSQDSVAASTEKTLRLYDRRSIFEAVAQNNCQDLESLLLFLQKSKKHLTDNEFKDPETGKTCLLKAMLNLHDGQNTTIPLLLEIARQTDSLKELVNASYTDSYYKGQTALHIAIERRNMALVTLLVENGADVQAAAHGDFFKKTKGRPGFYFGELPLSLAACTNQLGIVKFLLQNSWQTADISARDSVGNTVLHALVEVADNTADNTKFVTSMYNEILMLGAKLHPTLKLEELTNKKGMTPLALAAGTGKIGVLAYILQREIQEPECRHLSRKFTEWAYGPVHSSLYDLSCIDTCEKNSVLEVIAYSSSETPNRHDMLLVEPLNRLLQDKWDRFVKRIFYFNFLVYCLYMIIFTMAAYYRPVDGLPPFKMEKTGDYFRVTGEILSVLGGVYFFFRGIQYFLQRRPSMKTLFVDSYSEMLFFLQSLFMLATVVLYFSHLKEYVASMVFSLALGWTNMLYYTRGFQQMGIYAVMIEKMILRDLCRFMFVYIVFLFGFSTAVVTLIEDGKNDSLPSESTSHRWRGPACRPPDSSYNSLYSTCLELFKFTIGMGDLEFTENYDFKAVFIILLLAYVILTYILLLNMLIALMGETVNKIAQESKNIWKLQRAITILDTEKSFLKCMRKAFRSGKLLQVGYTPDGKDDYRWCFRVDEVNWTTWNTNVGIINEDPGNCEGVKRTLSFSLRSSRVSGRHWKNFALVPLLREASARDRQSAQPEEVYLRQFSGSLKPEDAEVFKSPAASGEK

Compound	IC50 [1] [nM]	remaining activity at 37.5 µM [2] [%]	hTRPV1 H+ (max % remain) [2] [%]
CN1C(=O)CCc2c(NC(=O)N[C@@H]3CC[C@@H](c4ccccc4F)C3)cccc21 [Example 99, 1-[(1R,3R)-3-(2-fluorophenyl)cyclopentyl]-3-(1-methyl-2-oxo-1,2,3,4-tetrahydroquinolin-5-yl)urea]	16	46	
CN1C(=O)CCc2c(NC(=O)N[C@H]3CC[C@@H](c4ccccc4F)C3)cccc21 [Example 100, 1-[(1S,3R)-3-(2-fluorophenyl)cyclopentyl]-3-(1-methyl-2-oxo-1,2,3,4-tetrahydroquinolin-5-yl)urea]	25	43	
Cn1ncc2c(NC(=O)N[C@@H]3CC[C@@H](c4cccc(F)c4)C3)cccc21 [Example 101, 1-[(1R,3R)-3-(3-fluorophenyl)cyclopentyl]-3-(1-methyl-420-1-21H-indazol-4-yl)urea]	25		4
Cn1ncc2c(NC(=O)N[C@H]3CC[C@@H](c4cccc(F)c4)C3)cccc21 [Example 102, 1-[(1S,3R)-3-(3-fluorophenyl)cyclopentyl]-3-(1-methyl-1H-indazol-4-yl)urea]	218	34	
Cn1ncc2c(NC(=O)N[C@@H]3CC[C@@H](c4ccccc4F)C3)cccc21 [Example 103, 1-[(1R,3R)-3-(2-fluorophenyl)cyclopentyl]-3-(1-methyl-1H-indazol-4-yl)urea]	14	19	
Cn1ncc2c(NC(=O)N[C@H]3CC[C@@H](c4ccccc4F)C3)cccc21 [Example 104, 1-[(1S,3R)-3-(2-fluorophenyl)cyclopentyl]-3-(1-methyl-1H-indazol-4-yl)urea]	97	42	
CN1C(=O)CCc2ccc(NC(=O)N[C@H]3CC[C@@H](c4ccccc4)C3)cc21 [Example 105, 1-(1-methyl-2-oxo-1,2,3,4-tetrahydroquinolin-7-yl)-3-[(1S,3R)-3-phenylcyclopentyl]urea]	956	91	
CN1C(=O)CCc2ccc(NC(=O)N[C@H]3CC[C@H](c4ccccc4)C3)cc21 [Example 106, 1-(1-methyl-2-oxo-1,2,3,4-tetrahydroquinolin-7-yl)-3-[(1S,3S)-3-phenylcyclopentyl]urea]	> 37500	75	
CN1C(=O)CCc2ccc(NC(=O)N[C@@H]3CC[C@@H](c4cccc(F)c4)C3)cc21 [Example 107, 1-[(1R,3R)-3-(3-fluorophenyl)cyclopentyl]-3-(1-methyl-2-oxo-1,2,3,4-tetrahydroquinolin-7-yl)urea]	> 37500	77	
CN1C(=O)CCc2ccc(NC(=O)N[C@H]3CC[C@@H](c4cccc(F)c4)C3)cc21 [Example 108, 1-[(1S,3R)-3-(3-fluorophenyl)cyclopentyl]-3-(1-methyl-2-oxo-1,2,3,4-tetrahydroquinolin-7-yl)urea]	804	88	
CN1C(=O)CCc2ccc(NC(=O)N[C@@H]3CC[C@@H](c4ccccc4F)C3)cc21 [Example 109, 1-[(1R,3R)-3-(2-fluorophenyl)cyclopentyl]-3-(1-methyl-2-oxo-1,2,3,4-tetrahydroquinolin-7-yl)urea]	> 37500	76	
CN1C(=O)CCc2ccc(NC(=O)N[C@H]3CC[C@@H](c4ccccc4F)C3)cc21 [Example 110, 1-[(1S,3R)-3-(2-fluorophenyl)cyclopentyl]-3-(1-methyl-2-oxo-1,2,3,4-tetrahydroquinolin-7-yl)urea]	> 37500	72	
O=C(Nc1cccc2c1CCC2)N[C@@H]1CC[C@H](c2ccccc2)C1 [Example 111, 1-(2,3-dihydro-1H-inden-4-yl)-3-[(1R,3S)-3-phenylcyclopentyl]urea]	362	32	
O=C(Nc1cccc2c1CCC2)N[C@H]1CC[C@H](c2ccccc2)C1 [Example 112, 1-(2,3-dihydro-1H-inden-4-yl)-3-[(1S,3S)-3-phenylcyclopentyl]urea]	1370	35	
O=C(Nc1ccc2c(c1)NC(=O)N(CCO)C2)N[C@H]1CC[C@@H](c2ccccc2)C1 [Example 113, 1-[3-(2-hydroxyethyl)-2-oxo-1,2,3,4-tetrahydroquinazolin-7-yl]-3-[(1S,3R)-3-phenylcyclopentyl]urea]	7700	50	
O=C(Nc1ccc2c(c1)NC(=O)N(CCO)C2)N[C@H]1CC[C@H](c2ccccc2)C1 [Example 114, 1-[3-(2-hydroxyethyl)-2-oxo-1,2,3,4-tetrahydroquinazolin-7-yl]-3-[(1S,3S)-3-phenylcyclopentyl]urea]	830	62	

Compound	IC50 [1] [nM]	remaining activity at 37.5 µM [2] [%]	hTRPV1 H+ (max % remain) [2] [%]
O=C(Nc1ccc2c(c1)NC(=O)N(CCO)C2)N[C@@H]1CC[C@@H](c2cccc(F)c2)C1 [Example 115, 1-[(1R,3R)-3-(3-fluorophenyl)cyclopentyl]-3-[3-(2-hydroxyethyl)-2-oxo-1,2,3,4-tetrahydroquinazolin-7-yl]urea]	653	47	
O=C(Nc1ccc2c(c1)NC(=O)N(CCO)C2)N[C@H]1CC[C@@H](c2cccc(F)c2)C1 [Example 116, 1-[(1S,3R)-3-(3-fluorophenyl)cyclopentyl]-3-[3-(2-hydroxyethyl)-2-oxo-1,2,3,4-tetrahydroquinazolin-7-yl]urea]	930	48	
O=C(Nc1ccc2c(c1)NC(=O)N(CCO)C2)N[C@H]1CC[C@@H](c2ccccc2F)C1 [Example 117, 1-[(1S,3R)-3-(2-fluorophenyl)cyclopentyl]-3-[3-(2-hydroxyethyl)-2-oxo-1,2,3,4-tetrahydroquinazolin-7-yl]urea]	804	47	
Cn1c(=O)ccc2c(NC(=O)N[C@H]3CC[C@H](c4ccccc4)C3)cccc21 [Example 118, 1-(1-methyl-2-oxo-1,2-dihydroquinolin-5-yl)-3-[(1S,3S)-3-phenylcyclopentyl]urea]	> 37500	50	
O=C(Nc1cccc2c1CCC2)N[C@H]1CC[C@@H](c2ccccc2)C1 [Example 124, 1-(2,3-dihydro-1H-inden-4-yl)-3-[(1S,3R)-3-phenylcyclopentyl]urea]	6480	50	
Cc1cc2c(NC(=O)N[C@@H]3CC[C@H](c4nc(C)cs4)C3)c(F)ccc2cn1 [Example 132, 1-(6-fluoro-3-methylisoquinolin-5-yl)-3-[(1R,3S)-3-(4-methyl-1,3-thiazol-2-yl)cyclopentyl]urea]	324	40	
Cc1cc2c(NC(=O)N[C@@H]3CC[C@@H](c4nc(C)cs4)C3)c(F)ccc2cn1 [Example 133, 1-(6-fluoro-3-methylisoquinolin-5-yl)-3-[(1R,3R)-3-(4-methyl-1,3-thiazol-2-yl)cyclopentyl]urea]	507	16	
Cc1cc2c(NC(=O)N[C@H]3CC[C@H](c4nc(C)cs4)C3)c(F)ccc2cn1 [Example 134, 1-(6-fluoro-3-methylisoquinolin-5-yl)-3-[(1S,3S)-3-(4-methyl-1,3-thiazol-2-yl)cyclopentyl]urea]	156	36	
Cc1cc2c(NC(=O)N[C@H]3CC[C@@H](c4nc(C)cs4)C3)c(F)ccc2cn1 [Example 135, 1-(6-fluoro-3-methylisoquinolin-5-yl)-3-[(1S,3R)-3-(4-methyl-1,3-thiazol-2-yl)cyclopentyl]urea]	1790	57	
O=C(Nc1cccc2c(Cl)nccc12)N[C@@H]1CC[C@H](c2ccccc2)C1 [Example 136, 1-(1-chloroisoquinolin-5-yl)-3-[(1R,3S)-3-phenylcyclopentyl]urea]	> 37500	46	
O=C(Nc1cccc2[nH]ccc12)N[C@@H]1CC[C@H](c2ccccc2)C1 [Example 137, 1-(1H-indol-4-yl)-3-[(1R,3S)-3-phenylcyclopentyl]urea]	100	42	
O=C(Nc1cccc2c1CCCC2)N[C@@H]1CC[C@H](c2ccccc2)C1 [Example 138, 1-[(1R,3S)-3-phenylcyclopentyl]-3-(5,6,7,8-tetrahydronaphthalen-1-yl)urea]	156	0	
CC(C)Cc1cc2c(NC(=O)N[C@@H]3CC[C@H](c4ccccc4)C3)c(F)ccc2cn1 [Example 139, 1-[6-fluoro-3-(2-methylpropyl)isoquinolin-5-yl]-3-[(1R,3S)-3-phenylcyclopentyl]urea]	> 37500	89	
CCc1cc2c(NC(=O)N[C@@H]3CC[C@H](c4ccccc4)C3)c(F)ccc2cn1 [Example 140, 1-(3-ethyl-6-fluoroisoquinolin-5-yl)-3-[(1R,3S)-3-phenylcyclopentyl]urea]	9600	90	
Cc1nc(N)cc2c(NC(=O)N[C@@H]3CC[C@H](c4ccccc4)C3)cccc12 [Example 141, 1-(3-amino-1-methylisoquinolin-5-yl)-3-[(1R,3S)-3-phenylcyclopentyl]urea]	> 37500	82	
O=C(Nc1ccc2c(c1)NC(=O)C(N1CCOCC1)C2)N[C@@H]1CC[C@H](c2ccccc2)C1 (stereo partly drawn) [Example 142, 1-[3-(morpholin-4-yl)-2-oxo-1,2,3,4-tetrahydroquinolin-7-yl]-3-[(1R,3S)-3-phenylcyclopentyl]urea]	116	66	
